Laboratory results from PubChem BioAssay AID2060327 (Molecular Pharmacology Branch, DTP, NCI, 2025).
“And” between values parts separate entries of the source, which are not always exact repeats. Equal values may be shown once. Each block holds one compound with its values, some of them ahead of it.

Tested on: PC-3 multi-cell spheroids, viability
Test: Anticancer human tumor PC-3 cell line growth inhibition [IpAb];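 also: spheroids exposed to compounds for 7 days before readout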;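 as to viability, T/C: 100% = DMSO vehicle control wells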
Settings: for viability, T/C: stronger effect = lower value
Source text: Combinatorial screen of targeted agents with ipatasertib and abemaciclib in multi-cell type tumor spheroids
A high-throughput screen of multi-cell type tumor spheroids was designed to identify active combinations of targeted small molecules and ipatasertib or abemaciclib. Complex spheroids include a stromal component modeled by human endothelial cells (HUVEC) and fibroblasts modeled by human mesenchymal stem cells (MSCs). The concentration ranges selected for each drug and investigational agent were based upon clinically achievable concentrations if the clinical Cmax of the agent was known.
Compounds. The drugs and investigational agents: ipatasertib (NSC767898), abemaciclib(NSC768073), selumetinib (NSC741078), trametinib (758246), adavosertib (NSC754352), everolimus (NSC733504), sapanisertib (NSC764658), vemurafenib (NSC761431), venetoclax (NSC766270), copanlisib (NSC809693), apelisib (NSC765974), palbociblib (NSC758247), vemurafenib (NSC761431), dabrafenib (NSC764134), ravoxertinib (NSC781343), BMS-387032 (NSC767048), sotorasib (NSC818433), talazoparib (NSC767125) and afursertib (NSC778305), were obtained from the National Cancer Institute (NCI) Developmental Therapeutics Program Chemical Repository. The FDA-approved anticancer drug set is available from the NCI Developmental Therapeutics Program. […] The stock solutions were prepared in dimethyl sulfoxide (DMSO, Sigma-Aldrich, St. Louis, MO, cat. D2650) at 800-fold the tested concentration and stored at -70 degrees C prior to their use. All drugs and investigational agents were tested over a range starting from a high concentration at or near the clinical Cmax and decreasing in half-log increments. If the clinical Cmax for an agent had not been determined, the highest concentration tested was 10 microM.
NCI60 Cell Culture. NCI60 cell lines were obtained from the NCI Developmental Therapeutics Program Tumor Repository. For each lot of cells, the Repository performed Applied Biosystems AmpFLSTR Identifiler testing with PCR amplification to confirm consistency with the published Identifier STR profile for each cell line. Cells were kept in continuous culture for no more than 20 passages. The optimal seeding densities for each of the cell lines at each time point assessed were determined prior to performing the concentration response studies. Briefly, the NCI60 human tumor lines were grown as monolayers in RPMI 1640 medium supplemented with 10% FBS and 2 mmol/L L-glutamine.
An additional 9 lines were from the NCI60 cell line panel including MDA-MB-231 breast carcinoma, MDA-MB-468 breast carcinoma, MCF7 breast carcinoma, Hs578T breast carcinoma, MALME-3M melanoma, SK-MEL-2 melanoma, SK-OV-3 ovarian carcinoma, DU-145 prostate carcinoma, PC-3 prostate carcinoma, all cell lines along with major genetic alterations are listed on Table 2. Pooled donor human umbilical vein endothelial cells (HUVEC, Lonza, cat. CC-2519) and human mesenchymal stem cells (hMSC, Lonza, cat. PT-2501) were purchased from Lonza (Walkersville, MD).
PDMR cell lines were grown in complete medium (DC medium): Dulbecco's modified Eagle's medium (DMEM)/F12 supplemented with 5% fetal bovine serum (FBS), 2 mM L-glutamine, 100 U/mL penicillin and 100 µg/ml streptomycin, 0.4 µg/ml hydrocortisone, 10 ng/ml epidermal growth factor (EGF) recombinant human protein, 24 µg/mL adenine, and 0.1 mg/mL primocin. During culture from frozen stock vials, PDMR cells were cultured in the same medium containing 10 µM Y-27632 (see Table 3). The PDCs were cultured in complete DMEM/F12 media without 10 microM Y-27632 dihydrochloride for at least two passages prior to the screen. The pooled donor HUVEC and hMSC were cultured in endothelial cell growth medium 2 (PromoCell, Heidelberg, Germany, cat. C-22011) and mesenchymal stem cell growth medium 2 (PromoCell, cat. C-28009), respectively. For all experiments, HUVEC and hMSC were used at passages </=5.
[…]

[1] = curve of first compound, second compound 0.1 µM
[2] = curve of first compound, second compound 0.316 µM
[3] = curve of first compound, second compound 1 µM

SMILES: CC(=O)c1c(C)c2cnc(Nc3ccc(N4CCNCC4)cn3)nc2n(C2CCCC2)c1=O + CC(C)NCC(C(=O)N1CCN(c2ncnc3c2C(C)CC3O)CC1)c1ccc(Cl)cc1
- IC50 [1]: > 300 nM
- IC50 [2]: < 0.949 nM
- IC50 [3]: < 0.949 nM
- IC50 (curve of first compound, second compound 3.16 µM): < 0.949 nM
- IC50 (curve of first compound, second compound 10 µM): < 0.949 nM
- viability, T/C (second compound 0.1 µM, first compound 0.000949 µM): 74.1%
- viability, T/C (second compound 0.1 µM, first compound 0.003 µM): 63.7%
- viability, T/C (second compound 0.1 µM, first compound 0.00949 µM): 51%
- viability, T/C (second compound 0.1 µM, first compound 0.03 µM): 51.6%
- viability, T/C (second compound 0.1 µM, first compound 0.0949 µM): 52.9%
- viability, T/C (second compound 0.1 µM, first compound 0.3 µM): 48.2%
- viability, T/C (second compound 0.316 µM, first compound 0.000949 µM): 44.5%
- viability, T/C (second compound 0.316 µM, first compound 0.003 µM): 43.3%
- viability, T/C (second compound 0.316 µM, first compound 0.00949 µM): 43.8%
- viability, T/C (second compound 0.316 µM, first compound 0.03 µM): 40.1%
- viability, T/C (second compound 0.316 µM, first compound 0.0949 µM): 33.8%
- viability, T/C (second compound 0.316 µM, first compound 0.3 µM): 30.7%
- viability, T/C (second compound 1 µM, first compound 0.000949 µM): 26.3%
- viability, T/C (second compound 1 µM, first compound 0.003 µM): 23.8%
- viability, T/C (second compound 1 µM, first compound 0.00949 µM): 19.6%
- viability, T/C (second compound 1 µM, first compound 0.03 µM): 17.2%
- viability, T/C (second compound 1 µM, first compound 0.0949 µM): 15.8%
- viability, T/C (second compound 1 µM, first compound 0.3 µM): 14.8%
- viability, T/C (second compound 3.16 µM, first compound 0.000949 µM): 15.3%
- viability, T/C (second compound 3.16 µM, first compound 0.003 µM): 14.2%
- viability, T/C (second compound 3.16 µM, first compound 0.00949 µM): 14.2%
- viability, T/C (second compound 3.16 µM, first compound 0.03 µM): 13.3%
- viability, T/C (second compound 3.16 µM, first compound 0.0949 µM): 11.3%
- viability, T/C (second compound 3.16 µM, first compound 0.3 µM): 10.7%
- viability, T/C (second compound 10 µM, first compound 0.000949 µM): 13.5%
- viability, T/C (second compound 10 µM, first compound 0.003 µM): 12.9%
- viability, T/C (second compound 10 µM, first compound 0.00949 µM): 12.5%
- viability, T/C (second compound 10 µM, first compound 0.03 µM): 11.6%
- viability, T/C (second compound 10 µM, first compound 0.0949 µM): 11.5%
- viability, T/C (second compound 10 µM, first compound 0.3 µM): 10.8%

- IC50 (curve of compound): > 10000 nM
SMILES: C=CC(=O)N1CCN(c2nc(=O)n(-c3c(C)ccnc3C(C)C)c3nc(-c4c(O)cccc4F)c(F)cc23)C(C)C1 (configuration not stated)
- viability, T/C (compound 0.0316 µM): 108% and 98.7%
- viability, T/C (compound 0.1 µM): 100% and 108%
- viability, T/C (compound 0.316 µM): 90.2% and 99.7%
- viability, T/C (compound 1 µM): 110% and 112%
- viability, T/C (compound 3.16 µM): 122%
- viability, T/C (compound 10 µM): 79.6% and 119%

SMILES: Cc1nc(NC(=O)N2CCCC2C(N)=O)sc1-c1ccnc(C(C)(C)C(F)(F)F)c1 (configuration not stated) + CCN1CCN(Cc2ccc(Nc3ncc(F)c(-c4cc(F)c5nc(C)n(C(C)C)c5c4)n3)nc2)CC1
- IC50 (curve of first compound, second compound 0.01 µM): 1120 nM
- IC50 (curve of first compound, second compound 0.0316 µM): 1380 nM
- IC50 [1]: 489 nM
- IC50 [2]: 523 nM
- IC50 [3]: 172 nM
- viability, T/C (second compound 0.01 µM, first compound 0.0316 µM): 68.2%
- viability, T/C (second compound 0.01 µM, first compound 0.1 µM): 48.2%
- viability, T/C (second compound 0.01 µM, first compound 0.316 µM): 50.6%
- viability, T/C (second compound 0.01 µM, first compound 1 µM): 51.2%
- viability, T/C (second compound 0.01 µM, first compound 3.16 µM): 43.4%
- viability, T/C (second compound 0.01 µM, first compound 10 µM): 13.6%
- viability, T/C (second compound 0.0316 µM, first compound 0.0316 µM): 54.5%
- viability, T/C (second compound 0.0316 µM, first compound 0.1 µM): 52.7%
- viability, T/C (second compound 0.0316 µM, first compound 0.316 µM): 58.6%
- viability, T/C (second compound 0.0316 µM, first compound 1 µM): 53.9%
- viability, T/C (second compound 0.0316 µM, first compound 3.16 µM): 39.1%
- viability, T/C (second compound 0.0316 µM, first compound 10 µM): 11.1%
- viability, T/C (second compound 0.1 µM, first compound 0.0316 µM): 49%
- viability, T/C (second compound 0.1 µM, first compound 0.1 µM): 55.5%
- viability, T/C (second compound 0.1 µM, first compound 0.316 µM): 51.2%
- viability, T/C (second compound 0.1 µM, first compound 1 µM): 47.5%
- viability, T/C (second compound 0.1 µM, first compound 3.16 µM): 32.9%
- viability, T/C (second compound 0.1 µM, first compound 10 µM): 11.5%
- viability, T/C (second compound 0.316 µM, first compound 0.0316 µM): 59.4%
- viability, T/C (second compound 0.316 µM, first compound 0.1 µM): 63.2%
- viability, T/C (second compound 0.316 µM, first compound 0.316 µM): 55.6%
- viability, T/C (second compound 0.316 µM, first compound 1 µM): 41.5%
- viability, T/C (second compound 0.316 µM, first compound 3.16 µM): 27.8%
- viability, T/C (second compound 0.316 µM, first compound 10 µM): 11.9%
- viability, T/C (second compound 1 µM, first compound 0.0316 µM): 62%
- viability, T/C (second compound 1 µM, first compound 0.1 µM): 53.6%
- viability, T/C (second compound 1 µM, first compound 0.316 µM): 45.9%
- viability, T/C (second compound 1 µM, first compound 1 µM): 29.6%
- viability, T/C (second compound 1 µM, first compound 3.16 µM): 20.6%
- viability, T/C (second compound 1 µM, first compound 10 µM): 14.4%
